Experimental data published in BindingDB's records for doi:10.1016/s0960-894x(00)00605-3 (Merck Research Laboratories, 2001).

Target: histone deacetylase enzyme from partially purified extracts of Eimeria tenella
Experiment: ChEBML_79057
Text: Inhibitory activity against histone deacetylase enzyme derived from partially purified extracts of Eimeria tenella protozoa using [3H]11 as radioligand
In the case of `CCC(=O)CCCCC[C@@H]1NC(=O)[C@H]2CCCCN2C(=O)[C@H]([C@@H](C)CC)NC(=O)[C@H](c2cnc3ccccc3c2N2CCCCC2)NC1=O`, the IC50 is reported as 0.8 nM.
Compound `CCC(=O)CCCCC[C@@H]1NC(=O)[C@H]2CCCCN2C(=O)[C@H]([C@@H](C)CC)NC(=O)[C@H](CC2CN(OC)c3ccc(Br)cc32)NC1=O` (stereo not given in full) has an IC50 of 2500 nM.
In the case of `CCCn1cc(C(O)c2nc(O)c(CCCCCC(=O)CC)[nH]c(O)c3n(c(O)c([C@@H](C)CC)[nH]c2=O)CCCC3)c2ccccc21` (stereo not given in full), the IC50 is reported as 4 nM.
Compound `CCC(=O)CCCCCc1[nH]c(O)c2n(c(O)c([C@@H](C)CC)[nH]c(=O)c(C(O)c3ccc4c(ccn4C)c3)nc1O)CCCC2` (stereo not given in full) has an IC50 of 30 nM.
In the case of `CCC(=O)CCCCC[C@@H]1NC(=O)[C@H]2CCCCN2C(=O)[C@H]([C@@H](C)CC)NC(=O)[C@H](c2cn(OC)c3ccccc3c2=O)NC1=O`, the IC50 is reported as 4 nM.
With `CCC(=O)CCCCCc1[nH]c(O)c2n(c(O)c([C@@H](C)CC)[nH]c(=O)c(C(O)c3c[nH]c4ccccc34)nc1O)CCCC2` (stereo not given in full) the IC50 was 23 nM.
`CCC(=O)CCCCC[C@@H]1NC(=O)[C@H]2CCCCN2C(=O)[C@H]([C@@H](C)CC)NC(=O)[C@H](Cc2cn(CC)c3ccccc23)NC1=O` showed an IC50 of 100 nM.
Work on `CCC(=O)CCCCC[C@@H]1NC(=O)[C@H]2CCCCN2C(=O)[C@H]([C@@H](C)CC)NC(=O)[C@H](c2cn(CC)c3ccccc3c2=O)NC1=O` yielded an IC50 of 11 nM.
In the case of `CCC(=O)CCCCC[C@@H]1NC(=O)[C@H]2CCCCN2C(=O)[C@H]([C@@H](C)CC)NC(=O)[C@H](Cc2cn(C)c3ccccc23)NC1=O`, the IC50 is reported as 5 nM.
`CCC(=O)CCCCC[C@@H]1NC(=O)[C@H]2CCCCN2C(=O)[C@H]([C@@H](C)CC)NC(=O)[C@H](CCOc2ccccc2)NC1=O` showed an IC50 of 3 nM.
Work on `CCC(=O)CCCCCc1[nH]c(O)c2n(c(O)c([C@@H](C)CC)[nH]c(=O)c(CC(O)c3ccccc3[N+](=O)[O-])nc1O)CCCC2` (stereo not given in full) yielded an IC50 of 33 nM.
For `CCC(=O)CCCCC[C@@H]1NC(=O)[C@H]2CCCCN2C(=O)[C@H]([C@@H](C)CC)NC(=O)[C@H](Cc2cn(OC)c3ccc(Br)cc23)NC1=O`, the IC50 was 175 nM.
With `CCC(=O)CCCCC[C@@H]1NC(=O)[C@H]2CCCCN2C(=O)[C@H]([C@@H](C)CC)NC(=O)[C@H](Cc2c[nH]c3ccccc23)NC1=O` the IC50 was 1 nM.
Compound `CCC(=O)CCCCC[C@@H]1NC(=O)[C@H]2CCCCN2C(=O)[C@H]([C@@H](C)CC)NC(=O)[C@H](Cc2c(-c3ccc4c(ccn4C)c3)[nH]c3ccccc23)NC1=O` has an IC50 of 25 nM.
Work on `CCC(=O)CCCCC[C@@H]1NC(=O)[C@H]2CCCCN2C(=O)[C@H]([C@@H](C)CC)NC(=O)[C@H](Cc2c(Br)[nH]c3ccccc23)NC1=O` yielded an IC50 of 200 nM.
Compound `CCC(=O)CCCCC[C@@H]1NC(=O)[C@H]2CCCCN2C(=O)[C@H]([C@@H](C)CC)NC(=O)[C@H](c2cnc3ccccc3c2Cl)NC1=O` has an IC50 of 2 nM.
Work on `CCC(=O)CCCCC[C@@H]1NC(=O)[C@H]2CCCCN2C(=O)[C@H]([C@@H](C)CC)NC(=O)[C@H](Cc2cn(CC(=O)O)c3ccccc23)NC1=O` yielded an IC50 of 100 nM.

Target: Histone deacetylase (Eimeria tenella)
Experiment: Binding affinity towards HDAC enzyme derived from Eimeria tenella protozoa
With `CCC(=O)CCCCC[C@@H]1NC(=O)[C@H]2CCCCN2C(=O)[C@H]([C@@H](C)CC)NC(=O)[C@H](c2cnc3ccccc3c2N2CCCCC2)NC1=O` the Ki was 20 nM.
For `CCC(=O)CCCCC[C@@H]1NC(=O)[C@H]2CCCCN2C(=O)[C@H]([C@@H](C)CC)NC(=O)[C@H](c2cn(OC)c3ccccc3c2=O)NC1=O`, the Ki was 30 nM.
With `CCC(=O)CCCCC[C@@H]1NC(=O)[C@H]2CCCCN2C(=O)[C@H]([C@@H](C)CC)NC(=O)[C@H](c2cn(CC)c3ccccc3c2=O)NC1=O` the Ki was 70 nM.
Work on `CCC(=O)CCCCC[C@@H]1NC(=O)[C@H]2CCCCN2C(=O)[C@H]([C@@H](C)CC)NC(=O)[C@H](c2cnc3ccccc3c2O)NC1=O` yielded a Ki of 10 nM.
In the case of `CCC(=O)CCCCC[C@@H]1NC(=O)[C@H]2CCCCN2C(=O)[C@H]([C@@H](C)CC)NC(=O)[C@H](c2cnc3ccccc3c2Cl)NC1=O`, the Ki is reported as 50 nM.
`CCCCCCCCCCC(=O)C[C@@H]1NC(=O)[C@H](CCCCCC(=O)CC)NC(=O)[C@H]2CCCCN2C(=O)[C@H]([C@@H](C)CC)NC1=O` showed a Ki of over 1000 nM.
In the case of `CCC(=O)CCCCC[C@@H]1NC(=O)[C@H]2CCCCN2C(=O)[C@H]([C@@H](C)CC)NC(=O)[C@@H](c2cnc3ccccc3c2O)NC1=O`, the Ki is reported as 250 nM.

Target: not listed separately
Experiment: Inhibitory activity against histone deacetylase enzyme derived from partially purified extracts of Eimeria tenella protozoa using [3H]11 as radioligand
`CCC(=O)CCCCC[C@@H]1NC(=O)[C@H]2CCCCN2C(=O)[C@H]([C@@H](C)CC)NC(=O)[C@H](C(=O)c2c[nH]c3ccccc23)NC1=O` showed an IC50 of 10 nM.
